Source: the NIST ThermoML archive (doi:10.1007/s10765-006-0095-5)
Numbers after ± are expanded uncertainties.

What was measured:
[1] = xn = mol fraction of the nth substance listed; conditions: 101 kPa, Liquid, x1 = 1
[2] = 101 kPa, Liquid
[3] = refractive index (Na D-line) (dimensionless); conditions: 101.33 kPa, Liquid

Structure (SMILES)	mass density ([1]; 298.15 K)	mass density ([1]; 303.15 K)	mass density ([1]; 308.15 K)	mass density ([1]; 313.15 K)	mass density ([1]; 318.15 K)	mass density ([2]; 298.15 K)	mass density ([2]; 303.15 K)	mass density ([2]; 308.15 K)	mass density ([2]; 313.15 K)	mass density ([2]; 318.15 K)	refractive index ([3]; 298.15 K)	refractive index ([3]; 303.15 K)	refractive index ([3]; 308.15 K)	refractive index ([3]; 313.15 K)	refractive index ([3]; 318.15 K)
c1ccccc1 [benzene] + CCN(CC)CC	873.6 ± 2.5 kg/m3	870.8 ± 2.6 kg/m3	865.7 ± 2.7 kg/m3	861 ± 2.9 kg/m3	856.3 ± 3 kg/m3	–	–	–	–	–	–	–	–	–	–
c1ccccc1 [benzene]	–	–	–	–	–	873.6 ± 2.5 kg/m3	870.8 ± 2.6 kg/m3	865.7 ± 2.7 kg/m3	861 ± 2.9 kg/m3	856.3 ± 3 kg/m3	1.4979 ± 0.0019	1.4962 ± 0.0019	1.4944 ± 0.0019	1.4929 ± 0.0019	1.4911 ± 0.0019
CCCCN(CCCC)CCCC [tributylamine]	–	–	–	–	–	774.3 ± 2.1 kg/m3	770.8 ± 2.3 kg/m3	767.2 ± 2.4 kg/m3	763.6 ± 2.5 kg/m3	759.8 ± 2.6 kg/m3	1.4274 ± 0.0019	1.4259 ± 0.0019	1.4231 ± 0.0019	1.421 ± 0.0019	1.4188 ± 0.0019
c1ccccc1 [benzene] + CCCCN(CCCC)CCCC	873.6 ± 2.5 kg/m3	870.8 ± 2.6 kg/m3	865.7 ± 2.7 kg/m3	861 ± 2.9 kg/m3	856.3 ± 3 kg/m3	–	–	–	–	–	–	–	–	–	–
CCN(CC)CC [triethylamine]	–	–	–	–	–	723.4 ± 1.9 kg/m3	717.9 ± 2.1 kg/m3	712.9 ± 2.2 kg/m3	708.3 ± 2.3 kg/m3	701.6 ± 2.4 kg/m3	1.4011 ± 0.0019	1.3983 ± 0.0019	1.395 ± 0.0019	1.3928 ± 0.0019	1.3898 ± 0.0019
